# Reference: patent US20150105252A1, “SUBSTITUTED PYRAZOLES AS HERBICIDES” (E I DU PONT DE NEMOURS AND COMPANY, priority 2013, published 2015)
# Key:
# chickweed = experiment: Test C postemergence; type: in vivo, Stellaria media
# Outline: (§1)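 Herbicidal effect is expressed as percent visual control (0–100) judged against untreated plants 13 to 15 days after treatment in the greenhouse. Preemergence pots contained seeds in a soil–sand blend; postemergence plants, 2–18 cm tall, grew in peat-based planting medium.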
# velvetleaf [1] = experiment: Test C postemergence; type: in vivo, Abutilon theophrasti; details: postemergence
# Outline: as §1
# lambsquarters = experiment: Test C postemergence; type: in vivo, Chenopodium album
# Outline: as §1
# pigweed = experiment: Test C postemergence; type: in vivo, Amaranthus retroflexus; details: postemergence
# Outline: as §1
# velvetleaf [2] = experiment: Test A postemergence; type: in vivo, Abutilon theophrasti
# Outline: (§2)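 Pre- and postemergence greenhouse test; loam+sand; cpd in non-phytotox. solvent/surfactant; post at 1–2 leaf, 2–10 cm; visual score ~10 d, 0 = none, 100 = complete control.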
# barnyardgrass [3] = experiment: Test C postemergence; type: in vivo, Echinochloa crus-galli
# Outline: as §1
# corn [4] = experiment: Test A preemergence; type: in vivo, Zea mays; details: preemergence
# Outline: as §2
# barnyardgrass [5] = experiment: Test C preemergence; type: in vivo, Echinochloa crus-galli; details: preemergence
# Outline: as §1
# oat, wild = experiment: Test C postemergence; type: in vivo, Avena fatua
# Outline: as §1
# morningglory [6] = experiment: Test A preemergence; type: in vivo, Ipomoea spp.; details: preemergence
# Outline: as §2
# oilseed rape = experiment: Test C postemergence; type: in vivo, Brassica napus; details: postemergence
# Outline: as §1
# foxtail, giant = experiment: Test A preemergence; type: in vivo, Setaria faberii; details: preemergence
# Outline: as §2
# morningglory [7] = experiment: Test C postemergence; type: in vivo, Ipomoea coccinea
# Outline: as §1
# barnyardgrass [8] = experiment: Test A postemergence; type: in vivo, Echinochloa crus-galli
# Outline: as §2
# galium = experiment: Test C preemergence; type: in vivo, Galium aparine; details: preemergence
# Outline: as §1
# corn [9] = experiment: Test A postemergence; type: in vivo, Zea mays
# Outline: as §2
# [10] = Postemergence, 31 g ai/ha, visually evaluated after 13 to 15 days
# [11] = postemergence, 62 g ai/ha, scale 0 to 100
# [12] = postemergence, 250 g ai/ha, scale 0 to 100 (0 no effect, 100 complete control)
# [13] = postemergence, 125 g ai/ha, scale 0 to 100, 0 no effect, 100 complete control
# [14] = 250 g ai/ha, scale 0 to 100 (0 no effect, 100 complete control)
# [15] = 125 g ai/ha, scale 0 to 100, 0 no effect, 100 complete control
# [16] = Postemergence, 500 g ai/ha, 0 to 100 scale (0 no effect, 100 complete control)
# [17] = postemergence, 125 g ai/ha, about 10 days, visual rating on 0 to 100 scale (0 no effect, 100 complete control)
# [18] = 125 g ai/ha, visual injury approx. 10 days after treatment
# [19] = 500 g ai/ha, visual injury after approx. 10 days, 0 to 100 scale (0 no effect, 100 complete control)
# [20] = 31 g ai/ha, visual rating, scale 0 to 100 (0 no effect, 100 complete control), 13 to 15 days
# [21] = 62 g ai/ha, scale 0 to 100 (0 no effect, 100 complete control), 13 to 15 days
# [22] = 125 g ai/ha, 13 to 15 days, scale 0 to 100, 0 = no effect, 100 = complete control
# [23] = 250 g ai/ha, scale 0 to 100, 0 is no effect, 100 is complete control
smiles,measurement,setting,value
CCCNC(=O)c1cc(CCF)n(Cc2ccnc(C(F)(F)F)c2)n1 [Compound 177],"Plant response rating (scale of 0 to 100 where 0 is no effect and 100 is complete control), Chickweed",chickweed; [10],60
same,Chickweed plant response rating,chickweed; [11],75
same,"Plant response rating, Chickweed",chickweed; [12],90
same,"Plant response rating, Chickweed",chickweed; [13],70
same,"Plant response rating, Velvetleaf",velvetleaf [1]; [14],60
same,Velvetleaf plant response rating,velvetleaf [1]; scale 0 to 100,45
same,"Plant response rating (scale of 0 to 100 where 0 is no effect and 100 is complete control), Lambsquarters",lambsquarters; [10],65
same,Lambsquarters plant response rating,lambsquarters; [11],50
same,"Plant response rating, Lambsquarters",lambsquarters; [12],85
same,"Plant response rating, Lambsquarters",lambsquarters; [13],75
same,Pigweed plant response rating,"pigweed; 62 g ai/ha, scale 0 to 100",40
same,"Plant response rating, Pigweed",pigweed; [14],85
same,"Plant response rating, Pigweed",pigweed; [15],75
same,Velvetleaf plant response rating,velvetleaf [2]; [16],100
same,Velvetleaf plant response rating,velvetleaf [2]; [17],40
same,"Plant response rating (scale of 0 to 100 where 0 is no effect and 100 is complete control), Barnyardgrass",barnyardgrass [3]; [10],5
same,Barnyardgrass plant response rating,barnyardgrass [3]; [11],5
same,"Plant response rating, Barnyardgrass",barnyardgrass [3]; [12],20
same,"Plant response rating, Barnyardgrass",barnyardgrass [3]; [13],10
same,Corn plant response rating (0 to 100 scale),corn [4]; [18],80
same,Corn plant response rating,corn [4]; [19],90
same,Barnyardgrass plant response rating,barnyardgrass [5]; [20],65
same,Barnyardgrass plant response rating,barnyardgrass [5]; [21],100
same,"Plant response rating, Barnyardgrass",barnyardgrass [5]; [22],100
same,Barnyardgrass plant response rating,barnyardgrass [5]; [23],100
same,"Plant response rating (scale of 0 to 100 where 0 is no effect and 100 is complete control), Oat, Wild","oat, wild; [10]",5
same,"Oat, Wild plant response rating","oat, wild; [11]",5
same,"Plant response rating, Oat, Wild","oat, wild; [12]",40
same,"Plant response rating, Oat, Wild","oat, wild; [13]",15
same,Morningglory plant response rating (0 to 100 scale),morningglory [6]; [18],100
same,Morningglory plant response rating,morningglory [6]; [19],100
same,Oilseed Rape plant response rating,"oilseed rape; 62 g ai/ha, scale 0 to 100",50
same,"Plant response rating, Oilseed Rape",oilseed rape; [14],70
same,"Plant response rating, Oilseed Rape",oilseed rape; [15],60
same,"Foxtail, Giant plant response rating (0 to 100 scale)","foxtail, giant; [18]",100
same,"Foxtail, Giant plant response rating","foxtail, giant; [19]",100
same,"Plant response rating (scale of 0 to 100 where 0 is no effect and 100 is complete control), Morningglory",morningglory [7]; [10],60
same,Morningglory plant response rating,morningglory [7]; [11],40
same,"Plant response rating, Morningglory",morningglory [7]; [12],80
same,"Plant response rating, Morningglory",morningglory [7]; [13],85
same,Barnyardgrass plant response rating,barnyardgrass [8]; [16],100
same,Barnyardgrass plant response rating,barnyardgrass [8]; [17],100
same,Galium plant response rating,galium; [20],100
same,Galium plant response rating,galium; [21],100
same,"Plant response rating, Galium",galium; [22],100
same,Galium plant response rating,galium; [23],100
same,Corn plant response rating,corn [9]; [16],100
same,Corn plant response rating,corn [9]; [17],90
